Assay results: ChEMBL document CHEMBL2021863, “Design and synthesis of new 4-pyrazolin-3-yl-1,2,3-triazoles and 1,2,3-triazol-4-yl-pyrazolin-1-ylthiazoles as potential antimicrobial agents” (2012)
Converted amounts (≈) assume the structure as drawn.

What was measured:
Staphylococcus aureus [1] = test: Antimicrobial activity against Staphylococcus aureus ATCC 29213 at 100 ug/ml after 24 hrs by agar well diffusion assay; format: functional; conditions: ATCC 29213, 24 h, read-out: DIZ
Bacillus subtilis [2] = test: Antimicrobial activity against Bacillus subtilis ATCC 6633 at 100 ug/ml after 24 hrs by agar well diffusion assay; format: functional; conditions: ATCC 6633, 24 h, read-out: DIZ
Priestia megaterium [3] = test: Antimicrobial activity against Bacillus megaterium ATCC 9885 at 100 ug/ml after 24 hrs by agar well diffusion assay; format: functional; conditions: ATCC 9885, 24 h, read-out: DIZ
Micrococcus luteus [4] = test: Antimicrobial activity against Sarcina lutea at 100 ug/ml after 24 hrs by agar well diffusion assay; format: functional; conditions: read-out: DIZ
Klebsiella pneumoniae [5] = test: Antimicrobial activity against Klebsiella pneumoniae ATCC 13883 at 100 ug/ml after 24 hrs by agar well diffusion assay; format: functional; conditions: ATCC 13883, 24 h, read-out: DIZ
Pseudomonas aeruginosa [6] = test: Antimicrobial activity against Pseudomonas aeruginosa ATCC 27953 at 100 ug/ml after 24 hrs by agar well diffusion assay; format: functional; conditions: ATCC 27953, 24 h, read-out: DIZ
Escherichia coli [7] = test: Antimicrobial activity against Escherichia coli ATCC 25922 at 100 ug/ml after 24 hrs by agar well diffusion assay; format: functional; conditions: ATCC 25922, 24 h, read-out: DIZ
Saccharomyces cerevisiae [8] = test: Antifungal activity against Saccharomyces cerevisiae at 100 ug/ml after 24 hrs by agar well diffusion assay; format: functional; conditions: read-out: DIZ
Candida albicans [9] = test: Antifungal activity against Candida albicans NRRL Y-477 at 100 ug/ml after 24 hrs by agar well diffusion assay; format: functional; conditions: NRRL Y-477, 24 h, read-out: DIZ
Staphylococcus aureus [10] = test: Antimicrobial activity against Staphylococcus aureus ATCC 29213 after 24 hrs by two-fold serial dilution method; format: functional; conditions: ATCC 29213, 24 h
Bacillus subtilis [11] = test: Antimicrobial activity against Bacillus subtilis ATCC 6633 after 24 hrs by two-fold serial dilution method; format: functional; conditions: ATCC 6633, 24 h
Priestia megaterium [12] = test: Antimicrobial activity against Bacillus megaterium ATCC 9885 after 24 hrs by two-fold serial dilution method; format: functional; conditions: ATCC 9885, 24 h
Micrococcus luteus [13] = test: Antimicrobial activity against Sarcina lutea after 24 hrs by two-fold serial dilution method; format: functional
Klebsiella pneumoniae [14] = test: Antimicrobial activity against Klebsiella pneumoniae ATCC 13883 after 24 hrs by two-fold serial dilution method; format: functional; conditions: ATCC 13883, 24 h
Pseudomonas aeruginosa [15] = test: Antimicrobial activity against Pseudomonas aeruginosa ATCC 27953 after 24 hrs by two-fold serial dilution method; format: functional; conditions: ATCC 27953, 24 h
Escherichia coli [16] = test: Antimicrobial activity against Escherichia coli ATCC 25922 after 24 hrs by two-fold serial dilution method; format: functional; conditions: ATCC 25922, 24 h
Saccharomyces cerevisiae [17] = test: Antifungal activity against Saccharomyces cerevisiae by two-fold serial dilution method; format: functional
Candida albicans [18] = test: Antifungal activity against Candida albicans NRRL Y-477 by two-fold serial dilution method; format: functional
Priestia megaterium [19] = test: Antimicrobial activity against Bacillus megaterium ATCC 9885 at 50 ug/ml after 24 hrs by agar well diffusion assay; format: functional; conditions: ATCC 9885, 24 h, read-out: DIZ
Micrococcus luteus [20] = test: Antimicrobial activity against Sarcina lutea at 50 ug/ml after 24 hrs by agar well diffusion assay; format: functional; conditions: read-out: DIZ
Staphylococcus aureus [21] = test: microbe, parasite or virus in culture; conditions: ATCC 29213, 24 h, read-out: DIZ
Description: Antimicrobial activity against Staphylococcus aureus ATCC 29213 at 50 ug/ml after 24 hrs by agar well diffusion assay

Bacillus subtilis [22] = test: microbe, parasite or virus in culture; conditions: ATCC 6633, 24 h, read-out: DIZ
Description: Antimicrobial activity against Bacillus subtilis ATCC 6633 at 50 ug/ml after 24 hrs by agar well diffusion assay

Klebsiella pneumoniae [23] = test: microbe, parasite or virus in culture; conditions: ATCC 13883, 24 h, read-out: DIZ
Description: Antimicrobial activity against Klebsiella pneumoniae ATCC 13883 at 50 ug/ml after 24 hrs by agar well diffusion assay

Pseudomonas aeruginosa [24] = test: microbe, parasite or virus in culture; conditions: ATCC 27953, 24 h, read-out: DIZ
Description: Antimicrobial activity against Pseudomonas aeruginosa ATCC 27953 at 50 ug/ml after 24 hrs by agar well diffusion assay

Saccharomyces cerevisiae [25] = test: Antifungal activity against Saccharomyces cerevisiae at 50 ug/ml after 24 hrs by agar well diffusion assay; format: functional; conditions: read-out: DIZ
Candida albicans [26] = test: Antifungal activity against Candida albicans NRRL Y-477 at 50 ug/ml after 24 hrs by agar well diffusion assay; format: functional; conditions: NRRL Y-477, 24 h, read-out: DIZ

SMILES	MIC (Staphylococcus aureus [10])	MIC (Bacillus subtilis [11])	MIC (Priestia megaterium [12])	MIC (Micrococcus luteus [13])	MIC (Klebsiella pneumoniae [14])	MIC (Pseudomonas aeruginosa [15])	MIC (Escherichia coli [16])	MIC (Saccharomyces cerevisiae [17])	MIC (Candida albicans [18])	also measured
Cc1ccc(-n2nnc(C3=NN(c4nc(-c5ccccc5)cs4)C(c4ccc(F)cc4)C3)c2C)cc1 (stereo not given)	16.5 µg/mL (≈ 33.4 µM)	33 µg/mL (≈ 66.7 µM)	33 µg/mL (≈ 66.7 µM)	66 µg/mL (≈ 133 µM)	33 µg/mL (≈ 66.7 µM)	8.25 µg/mL (≈ 16.7 µM)	132 µg/mL (≈ 267 µM)	33 µg/mL (≈ 66.7 µM)	66 µg/mL (≈ 133 µM)	zone of inhibition at 100 µg/mL (Staphylococcus aureus [1]): 26 mm; zone of inhibition at 100 µg/mL (Bacillus subtilis [2]): 24 mm; zone of inhibition at 100 µg/mL (Priestia megaterium [3]): 24 mm; zone of inhibition at 100 µg/mL (Micrococcus luteus [4]): 22 mm; zone of inhibition at 100 µg/mL (Klebsiella pneumoniae [5]): 26 mm; zone of inhibition at 100 µg/mL (Pseudomonas aeruginosa [6]): 28 mm; zone of inhibition at 100 µg/mL (Escherichia coli [7]): 16 mm; zone of inhibition at 100 µg/mL (Saccharomyces cerevisiae [8]): 22 mm; zone of inhibition at 100 µg/mL (Candida albicans [9]): 20 mm
O=C(O)c1cn(C2CC2)c2cc(N3CCNCC3)c(F)cc2c1=O [CIPROFLOXACIN]	8.25 µg/mL (≈ 24.9 µM)	8.25 µg/mL (≈ 24.9 µM)	8.25 µg/mL (≈ 24.9 µM)	16.5 µg/mL (≈ 49.8 µM)	16.5 µg/mL (≈ 49.8 µM)	16.5 µg/mL (≈ 49.8 µM)	16.5 µg/mL (≈ 49.8 µM)	–	–	zone of inhibition at 50 µg/mL (Priestia megaterium [19]): 24 mm; zone of inhibition at 50 µg/mL (Micrococcus luteus [20]): 20 mm; zone of inhibition at 50 µg/mL (Staphylococcus aureus [21]): 20 mm; zone of inhibition at 50 µg/mL (Bacillus subtilis [22]): 22 mm; zone of inhibition at 50 µg/mL (Klebsiella pneumoniae [23]): 25 mm; zone of inhibition at 50 µg/mL (Pseudomonas aeruginosa [24]): 24 mm
CC(=O)N1CCN(c2ccc(OCC3COC(Cn4ccnc4)(c4ccc(Cl)cc4Cl)O3)cc2)CC1 (stereo not given) [KETOCONAZOLE]	–	–	–	–	–	–	–	8.25 µg/mL (≈ 15.5 µM)	8.25 µg/mL (≈ 15.5 µM)	zone of inhibition at 50 µg/mL (Saccharomyces cerevisiae [25]): 23 mm; zone of inhibition at 50 µg/mL (Candida albicans [26]): 22 mm
